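Protocol summary: plate cells (96-well), add compound at 5 concentrations, incubate 48 h, interpolate endpoints linearly. The concentration for 50% growth inhibition is given as GI50.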 Active and inactive are the calls of the source. Cut-off read from the data, not from the text of the source: active = GI50 up to about 1.1 µM and inactive = higher.
What was measured:
Assay in all cases: NCI anticancer screen, dose series, 48 h
[1] = test system: ACHN
[2] = test system: DU-145
[3] = test system: EKVX
[4] = test system: HL-60
[5] = test system: HOP-92
[6] = test system: HT-29
[7] = test system: IGROV-1
[8] = test system: K562
[9] = test system: M14
[10] = test system: MCF7
[11] = test system: NCI-H460
[12] = test system: NCI-H522
[13] = test system: RPMI-8226
[14] = test system: RXF 393
[15] = test system: SK-MEL-5
[16] = test system: SN12C
[17] = test system: SR
[18] = test system: UACC-257
[19] = test system: UACC-62
[20] = test system: UO-31

Measured: GI50

O=C(CCCCCNC(=O)c1ccc(Cl)cc1)NO
inactive: [1] 5.19 µM | [2] 4.17 µM | [3] 8.97 µM | [4] 3.77 µM | [5] 2.81 µM | [6] 2.98 µM | [7] 5.16 µM | [8] 2.84 µM | [9] 5.71 µM | [10] 6.21 µM | [11] 4.07 µM | [12] 2.19 µM | [13] 3.09 µM | [14] 3.66 µM | [15] 3.24 µM | [16] 5.51 µM | [17] 2.54 µM | [18] 2.72 µM | [19] 3.03 µM | [20] 6.53 µM

Cc1noc(NS(=O)(=O)c2ccc(NC(=O)c3ccc4[nH]c5ccccc5c(=O)c4c3)cc2)c1C
inactive: [1] 53.8 µM | [2] > 100 µM | [3] 80.4 µM | [4] 27.4 µM | [5] 37.3 µM | [6] 39.3 µM | [7] > 100 µM | [8] 28.1 µM | [9] > 100 µM | [10] 30.5 µM | [11] 87.9 µM | [12] 26.4 µM | [13] 50.4 µM | [14] 36.4 µM | [15] 44 µM | [16] > 100 µM | [17] 29.1 µM | [18] > 100 µM | [19] 49.5 µM | [20] 75 µM

O=C(/C=C/c1cccc(Br)c1)c1ccc(Cl)cc1
inactive: [1] 16.8 µM | [2] 14.8 µM | [3] 16 µM | [4] 14.3 µM | [5] 15 µM | [6] 11.2 µM | [7] 17.1 µM | [8] 6.58 µM | [9] 14.6 µM | [10] 4.38 µM | [11] 16.9 µM | [12] 13.6 µM | [13] 2.08 µM | [14] 17.8 µM | [15] 14.2 µM | [16] 17.2 µM | [17] 2.42 µM | [18] 17.1 µM | [19] 14.8 µM | [20] 15.5 µM

N#C/C(=C\N1CCNC1=S)C(=O)c1ccc2ccccc2c1
inactive: [1] > 100 µM | [2] > 100 µM | [3] > 100 µM | [4] 7.06 µM | [5] > 100 µM | [6] > 100 µM | [7] > 100 µM | [8] > 100 µM | [9] > 100 µM | [10] > 100 µM | [11] > 100 µM | [12] > 100 µM | [13] 89.7 µM | [14] > 100 µM | [15] > 100 µM | [16] > 100 µM | [17] 71.4 µM | [18] > 100 µM | [19] > 100 µM | [20] > 100 µM

O=C1C(O)=C(C(C2=C(O)C(=O)c3ccccc3C2=O)c2ccc(Cl)cc2)C(=O)c2ccccc21
inactive: [1] 6.46 µM | [2] 5.42 µM | [3] 13.6 µM | [4] 1.66 µM | [5] 14.3 µM | [6] 7.87 µM | [7] 8.2 µM | [8] 15.2 µM | [9] 9.59 µM | [10] 5.13 µM | [11] 14 µM | [12] 8.95 µM | [13] 9.86 µM | [14] 7.13 µM | [15] 6.67 µM | [16] 1.71 µM | [17] 3.18 µM | [18] 5 µM | [19] 9.75 µM | [20] 10.1 µM

O=C(/N=S(/NC(=O)c1ccccc1)C(Cl)(Cl)Cl)c1ccccc1 (stereo not given)
inactive: [1] 18.4 µM | [2] 53.5 µM | [3] 19.7 µM | [4] 4.89 µM | [5] 32.3 µM | [6] 18.9 µM | [7] 8.47 µM | [8] 8.91 µM | [9] 10.5 µM | [10] 24 µM | [11] 30.5 µM | [12] 30.3 µM | [13] 41.2 µM | [14] 12.1 µM | [15] 14.3 µM | [16] 24.7 µM | [17] 17.1 µM | [18] 35.2 µM | [19] 22.6 µM | [20] 16.3 µM

COC(=O)C(Cc1c(C2Nc3ccccc3C2CC(NC(=O)CNC(C)=O)C(=O)OC)[nH]c2ccccc12)NC(=O)CNC(C)=O (stereo not given)
inactive: [1] > 100 µM | [2] > 100 µM | [3] > 100 µM | [4] > 26.6 µM | [5] > 100 µM | [6] > 100 µM | [7] > 100 µM | [8] > 100 µM | [9] > 100 µM | [10] > 100 µM | [11] > 100 µM | [12] > 100 µM | [13] > 100 µM | [14] > 100 µM | [15] > 100 µM | [16] > 100 µM | [17] 16.3 µM | [18] > 100 µM | [19] > 100 µM | [20] > 100 µM

O=C(NC(=O)c1c(Cl)nc2sccn12)Nc1ccc(Cl)cc1
inactive: [1] 77.4 µM | [2] > 83.4 µM | [3] > 91.6 µM | [4] > 100 µM | [5] 25.1 µM | [6] > 100 µM | [7] 49.4 µM | [8] > 100 µM | [9] 78.3 µM | [10] 15.5 µM | [11] > 85.9 µM | [12] 61 µM | [13] > 100 µM | [14] 30.9 µM | [15] > 88.3 µM | [16] 86.5 µM | [17] > 100 µM | [18] > 100 µM | [19] > 100 µM | [20] 67.1 µM

CSc1ccc2c(c1)C(N1CCN(C)CC1)Cc1ccccc1S2 (stereo not given)
inactive: [1] 3.25 µM | [2] 10.7 µM | [3] 3.34 µM | [4] 2.69 µM | [5] 1.49 µM | [6] 2.33 µM | [7] 2.17 µM | [8] 1.94 µM | [9] 1.95 µM | [10] 2.36 µM | [11] 2.47 µM | [12] 2.99 µM | [13] 1.91 µM | [14] 2.81 µM | [15] 1.82 µM | [16] 6.28 µM | [17] 2.3 µM | [18] 2.07 µM | [19] 2.05 µM | [20] 3.63 µM

COc1cc(O)c(C(=O)/C=C/c2ccc(O)cc2)cc1Oc1ccc(/C=C/C(=O)c2ccc(O)cc2O)cc1 [RHUSCHALCONE III]
inactive: [1] 8.75 µM | [2] 10.2 µM | [3] 13 µM | [4] 10.4 µM | [5] 11.4 µM | [6] 7.57 µM | [7] 7.66 µM | [8] 9.75 µM | [9] 9.62 µM | [10] 8.69 µM | [11] 11.6 µM | [12] 7.41 µM | [13] 6.79 µM | [14] 8.2 µM | [15] 7.36 µM | [16] 8.81 µM | [17] 5.01 µM | [18] 10.1 µM | [19] 8.61 µM | [20] 9.48 µM

From ChEMBL document CHEMBL1201862, “PubChem BioAssay data set” (2004)
